# Values quoted from earlier work as cited in US7084135B1, “Prenyl transferase inhibitors” (Societe de Conseils de Recherches et d'Applications …, priority 1998, dated 2006).
# Experiments:
# DU145 adenocarcinoma = conditions: Prostate: DU145 adenocarcinoma, with WT ras
# HT29, adenocarcinoma = conditions: Colon: HT29, adenocarcinoma with Wild Type ras (WT)
smiles,measurement,setting,value
CC[C@H](C)[C@@H](COC(Cc1ccccc1)C(=O)N[C@@H](CCS(C)(=O)=O)C(=O)OC(C)C)NC[C@@H](N)CS (some centres unmarked) [Compound L744-832],sensitivity of cell line to L744-832,DU145 adenocarcinoma,resistant
same,sensitivity of cell line to L744-832,"HT29, adenocarcinoma",sensitive
